Source: article PMC9887005, “Regioselective protein oxidative cleavage enabled by enzyme-like recognition of an inorganic metal oxo cluster ligand” (Nature Communications, 2023)

Target: T1, hen egg white lysozyme (HEWL) (Gallus gallus, UniProt P00698)
T1 construct: gene LYZ
Assay: tryptophan fluorescence quenching
Type: binding
Settings: 10 mM tris-HCl pH 7.5, room temperature; 10 µM HEWL, excitation 295 nm; double-log; fitted together with number of bound quencher molecules n
Source text: tryptophan fluorescence quenching on hen egg white lysozyme (HEWL)

T1 sequence (P00698 19-147): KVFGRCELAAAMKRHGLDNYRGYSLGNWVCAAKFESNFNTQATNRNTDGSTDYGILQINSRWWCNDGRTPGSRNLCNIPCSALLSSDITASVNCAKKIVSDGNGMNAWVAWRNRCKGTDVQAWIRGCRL

| Ka [M⁻¹] | Substance |
| --- | --- |
| 6.76e+08 | Cu^IIWD |
| 6.91e+08 | α2WD |
